Earlier results as cited in US11331299B2, “Medicinal use of serrulatane diterpenes” (The University of Sydney, priority 2016, dated 2022).

Experiments:
hDNMT3a = hDNMT3a (Homo sapiens, UniProt Q9Y6K1); settings: read-out: Reference: IC50; cited from earlier work
SETD7 (h) = biological target: T1, SETD7 (h) (Homo sapiens, UniProt Q8WTS6); settings: read-out: Reference: (IC50 not given); cited from earlier work
T1 sequence (Q8WTS6 1-366): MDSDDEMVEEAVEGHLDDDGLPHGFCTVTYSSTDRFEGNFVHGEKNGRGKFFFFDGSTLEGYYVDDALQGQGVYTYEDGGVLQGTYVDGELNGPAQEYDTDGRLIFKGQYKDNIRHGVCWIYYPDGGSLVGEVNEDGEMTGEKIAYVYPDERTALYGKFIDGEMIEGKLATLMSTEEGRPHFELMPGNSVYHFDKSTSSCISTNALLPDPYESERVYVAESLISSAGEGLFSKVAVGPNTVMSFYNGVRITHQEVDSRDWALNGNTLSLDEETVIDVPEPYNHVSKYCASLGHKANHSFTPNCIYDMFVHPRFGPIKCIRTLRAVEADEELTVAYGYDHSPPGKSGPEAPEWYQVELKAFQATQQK

MLL2(h) complex = settings: read-out: Reference: (IC50 not given); cited from earlier work

Sequence of hDNMT3a (Q9Y6K1 whole entry, looked up): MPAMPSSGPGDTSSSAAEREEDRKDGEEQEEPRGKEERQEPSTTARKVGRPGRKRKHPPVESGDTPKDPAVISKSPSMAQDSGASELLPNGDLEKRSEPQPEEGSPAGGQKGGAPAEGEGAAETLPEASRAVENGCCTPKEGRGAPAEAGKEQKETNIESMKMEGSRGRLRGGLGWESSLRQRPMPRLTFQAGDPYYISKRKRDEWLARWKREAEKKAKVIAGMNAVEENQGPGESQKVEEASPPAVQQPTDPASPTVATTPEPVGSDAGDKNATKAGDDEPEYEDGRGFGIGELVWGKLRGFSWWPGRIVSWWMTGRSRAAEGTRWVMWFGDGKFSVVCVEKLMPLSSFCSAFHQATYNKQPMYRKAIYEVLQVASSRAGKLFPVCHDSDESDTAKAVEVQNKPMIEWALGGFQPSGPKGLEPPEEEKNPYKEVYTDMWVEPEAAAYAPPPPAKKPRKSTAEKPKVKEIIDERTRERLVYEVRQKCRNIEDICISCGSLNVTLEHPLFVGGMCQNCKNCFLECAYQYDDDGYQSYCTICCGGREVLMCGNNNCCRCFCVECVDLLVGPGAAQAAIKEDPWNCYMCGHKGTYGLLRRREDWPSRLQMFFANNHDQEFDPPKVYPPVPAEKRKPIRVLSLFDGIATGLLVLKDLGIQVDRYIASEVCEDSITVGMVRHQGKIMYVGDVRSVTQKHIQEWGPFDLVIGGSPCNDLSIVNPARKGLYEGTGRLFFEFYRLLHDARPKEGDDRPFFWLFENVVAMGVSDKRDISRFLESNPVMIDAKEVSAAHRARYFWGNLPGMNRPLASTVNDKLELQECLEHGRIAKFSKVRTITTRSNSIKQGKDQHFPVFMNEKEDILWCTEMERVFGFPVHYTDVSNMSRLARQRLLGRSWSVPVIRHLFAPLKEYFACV

In the case of `Nc1ncnc2c1ncn2[C@@H]1O[C@H](CSCC[C@H](N)C(=O)O)[C@@H](O)[C@H]1O` [SAH], the IC50 (hDNMT3a) is given as 52 nM, the IC50 (SETD7 (h)) is given as 24000 nM and the IC50 (MLL2(h) complex) is given as 970 nM.
